Here are results for eight compounds from patent US8431402B2, “Method of high frequency regeneration of Sorghum” (Temasek Life Sciences Laboratory Limited, priority 2008, dated 2013).

The assay deals with dissected embryonated cotyledon (DEC) explants of sweet sorghum hybrid varieties Liotian 1, Lioza 7050A and Liao Ji Za 1. As to the kind of experiment: Regeneration of sorghum via organogenesis from dissected embryonated cotyledon (DEC) explants on stage 1-6 media. The class given is cell-based, Sorghum bicolor (L.) Moench. Conditions: for phenolic exudates from the base of the shoot buds: added to stage 2 medium. The procedure:
Seeds of sweet sorghum (Sorghum bicolor (L.) Moench) hybrid varieties Liotian 1, Lioza 7050A and Liao Ji Za 1 were obtained from Chinese National Center for Sorghum Improvement, Shenyang City, 110161, Liaoning Province, P.R. China. The viable seeds were washed in chlorohexidine surgical wash (two drops in 100 ml of sterile water) for five minutes and soaked in sterile water for two days at 4° C. in refrigerator. Later these imbibed seeds were further surface sterilized in 10% clorox solution (commercial bleach) for 10 minutes followed by washes with sterile water for five times. To ensure complete sterility, these seeds were rinsed again with 70% alcohol for 90 seconds and subsequently washed with sterile water three times before used as explants.
The radical tissues were completely removed from the dissected embryonated cotyledon (DEC) explants. After six weeks of culture, the SCPC from stage 1 medium were further injured and transferred to stage 2 medium (Table 1) and stage 3 medium (Table 1) at five and ten-day interval for shoot bud induction. Subsequently, the shoot buds developed on stage 3 medium were split into 8-10 clumps with each clumps containing three to five shoots and transferred to stage 4 medium (Table 1) for further shoot induction followed by stage 5 medium (Table 1) for shoot elongation at two-week intervals respectively. The elongated shoot clumps with 2-3 shoots (4 cm height) from stage 5 medium were transferred to stage 6 medium (Table 1) for root induction. The well developed and rooted plantlets were transferred for hardening after two weeks of culture.
The pH of the medium was adjusted to 5.8 with 1N NaOH or 1N HCl prior to the addition of 0.8% phytoagar (stages 1-5 media) or 0.25% phytogel (stage 6 medium) and sterilized by autoclaving at 121° C. for 20 minutes. Approximately 20 ml of sterilized medium was dispensed into sterilized Petri dish (90×15 mm size, plastic polycarbonate, Canada). The chemicals used for media preparations were of analytical grade (Duchefa Biochemie, Haarlem, The Netherlands and Sigma Aldrich, Inc., St Louis, USA). All the cultures were maintained at 25° C. 2° C. under white fluorescent tube lights, 16/8 h (light/dark) photoperiod period, light intensity of 25 μE m^−2s^−1 and with 55-60% relative humidity. The cultures were subcultured at two-week intervals during stage 1, five-day intervals in stages 2 and 3, followed by one-week intervals in stages 4 and 5, with no subculturing in stage 6.

Take `CC1=CC(=O)CC(C)(C)[C@@]1(O)/C=C/C(C)=C\C(=O)O` [ABA, abscisic acid]: the “germination of embryos attached to the cotyledons” value (shortened to “germination of embryos attached”) (present in stage 1 medium) is “inhibited germination of embryos”.

`O=[N+]([O-])[O-].[Ag+]` [AgNO3]: the “phenolic exudates from the base of the shoot buds” value (“phenolic exudates from the base” for short) is on record as “prevented these phenolic exudates”.

As for `O=C(O)[C@@H]1CCCN1` [proline, L-proline], under “present in stage 1 medium”, the “germination of embryos attached” value was “inhibited germination of embryos”.

Regarding `O=C1O[C@H]([C@@H](O)CO)C(O)=C1O` [Asc, ascorbic acid], the “phenolic exudates from the base” value is listed as “prevented these phenolic exudates”.

On to `O=C(O)COc1ccc(Cl)cc1Cl` [2,4-D, 2,4-dichlorophenoxy acetic acid], for which the callus formation (present in stage 1 medium, 6.78 μM) is on record as “induced callus formation”.

Consider `O=C(O)Cc1c[nH]c2ccccc12` [IAA, indole 3-acetic acid], for which the root induction entry (in stage 6 medium, 5.7 μM) is given as “induced roots within one week”.

On to `NC(=O)CC[C@H](N)C(=O)O` [L-glutamine], for which the “germination of embryos attached” value (present in stage 1 medium) is reported as “inhibited germination of embryos”.

With `NCC(=O)O` [L-glycine], the “phenolic exudates from the base” value was “prevented these phenolic exudates”.
